Format in all cases: cell-based
The test system of experiment [1] is Staphylococcus aureus 6538p. The experiment in a line: In vitro antibacterial activity (MIC, agar medium dilution), Biological Example 4. The following applies: 18 h, Table 31, read-out: Minimum Inhibitory Concentration: MIC.
A further experiment concerns Escherichia coli 851E. Described as above. To be noted: 18 h, Table 31, read-out: Minimum Inhibitory Concentration: MIC.
Experiment [2] deals with Klebsiella aerogenes 1082E. Described as above. To be noted: 18 h, Table 31, read-out: Minimum Inhibitory Concentration: MIC.
For another experiment, the system named is test strains. The experiment in a line: In vitro antibacterial activity, overall finding, Biological Example 4. The following applies: Tables 31 and 32. As to the method:
(§1) In order to determine the antibacterial activitiers of the E- and Z-isomner of the compound 180 which were separated in Example 203, and of 7- (4-aminomethyl-3-methyloxylminopyrrolidin-1-yl)-1-cyclopropyl-6-fluoro-4-oxo-1,4-dihydro-1,8-naphthyridine-3-carboxylic acid methanesulfonate prepared in Example 204, in vitro antibacterial activities of them were measured using agar medium dilution method. The results were as described in the following Tables 31 and 32.

A further experiment has as its system Staphylococcus aureus 77. Put plainly: In vitro antibacterial activity (MIC, agar medium dilution), Biological Example 4. To be noted: 18 h; Staphylococcus aureus 77, Table 31; read-out: Minimum Inhibitory Concentration: MIC.
The subject of experiment [3] is Klebsiella aerogenes 1976E. The description is as above. The following applies: 18 h, Table 31, read-out: Minimum Inhibitory Concentration: MIC.
For experiment [4], the system named is Escherichia coli TEM5 3739E. Described as above. To be noted: TEM53739E, 18 h, read-out: Minimum Inhibitory Concentration: MIC.
Experiment [5] deals with Escherichia coli TEM3 3455E. Described as above. To be noted: TEM33455E, 18 h.
A further experiment relates to Seratis marsecence 1826E. The experiment is described as above. To be noted: for MIC: 18 h, Table 31, read-out: Minimum Inhibitory Concentration: MIC. As to the method: as §1
The test system of experiment [6] is Pseudomonas aeruginosa 6065Y. The experiment is described as above. The following applies: 18 h, Table 31, read-out: Minimum Inhibitory Concentration: MIC. As to the method:
as §1

Experiment [7] concerns Staphylococcus epidermidis 887E. The experiment is described as above. The following applies: 18 h, Staphylococcus epidermidis 887E, Table 31, read-out: Minimum Inhibitory Concentration: MIC.
The subject of another experiment is Escherichia coli 3190Y. Described as above. To be noted: 18 h, Table 31, read-out: Minimum Inhibitory Concentration: MIC.
The test system of a further experiment is Proteus vulgaris 6059. The description is as above. To be noted: 18 h; Proteus vulgaris 6059, Table 31; read-out: Minimum Inhibitory Concentration: MIC.
For experiment [8], the system named is Pseudomonas aeruginosa 1912E. The description is as above. The following applies: 18 h, Table 31, read-out: Minimum Inhibitory Concentration: MIC.
Experiment [9] concerns Enterobacter cloacae 1194E. Put plainly: microbe, parasite or virus in culture. To be noted: 18 h, read-out: Minimum Inhibitory Concentration: MIC.
In another experiment the test system is Enterobacter cloacae P99. The experiment in a line: microbe, parasite or virus in culture. To be noted: P99, 18 h, read-out: Minimum Inhibitory Concentration: MIC.
For experiment [10], the system named is Acinetobacter calcoaceticus 15473. The experiment in a line: In vitro antibacterial activity (MIC, agar medium dilution), Biological Example 4. To be noted: 18 h; Acinetobacter calcoaceticus 15473, Table 31; read-out: Minimum Inhibitory Concentration: MIC.
For another experiment, the system named is Bacillus subtilis 6633. The experiment is described as above. The following applies: 18 h; Bacillus subtilis 6633, Table 31; read-out: Minimum Inhibitory Concentration: MIC.
Experiment [11] relates to Salmonella thypimurium 14028. The description is as above. The following applies: 18 h; Salmonella thypimurium 14028, Table 31; read-out: Minimum Inhibitory Concentration: MIC.
Experiment [12] has as its system Escherichia coli TEM9 2639E. The description is as above. To be noted: TEM92639E, 18 h, read-out: Minimum Inhibitory Concentration: MIC.
The subject of a further experiment is Escherichia coli 10536. The experiment is described as above. To be noted: Escherichia coli, 10536, 18 h, Escherichia coli 10536, Table 31; read-out: Minimum Inhibitory Concentration: MIC.
A further experiment concerns Micrococcus luteus 9341. Described as above. The following applies: 18 h; Micrococcus luteus 9341, Table 31; read-out: Minimum Inhibitory Concentration: MIC.
For experiment [13], the system named is Staphylococcus epidermidis 178. The description is as above. The following applies: 18 h; Staphylococcus epidermidis 178, Table 31; read-out: Minimum Inhibitory Concentration: MIC.
In experiment [14] the test system is Citrobacter diversus 2046E. Described as above. The following applies: Citrobacter koseri, 18 h, Table 31, read-out: Minimum Inhibitory Concentration: MIC.
Experiment [15] deals with Streptococcus faecalis 29212. The description is as above. To be noted: Enterococcus faecalis, 29212, 18 h, Streptococcus faecalis 29212, Table 31; read-out: Minimum Inhibitory Concentration: MIC.
The test system of experiment [16] is Staphylococcus aureus 241. The description is as above. The following applies: Staphylococcus aureus, 241, 18 h, Staphylococcus aureus 241, Table 31; read-out: Minimum Inhibitory Concentration: MIC.
The subject of experiment [17] is Staphylococcus aureus giorgio. The description is as above. To be noted: 18 h, Table 31, read-out: Minimum Inhibitory Concentration: MIC.
Experiment [18] relates to Pseudomonas aeruginosa 10145. Described as above. To be noted: Pseudomonas aeruginosa, 10145, 18 h, read-out: Minimum Inhibitory Concentration: MIC.
Setting [19] is: read-out: Minimum Inhibitory Concentration: MIC, Escherichia coli TEM3 3455E, Table 31.
The mark [20] stands for this setting: Pseudomonas aeruginosa 10145, Table 31.

The source of these data is patent publication US5776944A, “7-(4-aminomethyl-3-methyloxyiminopyrroplidin-1-yl)-1-cyclopropyl-6-flu oro-4-oxo-1,4-dihydro-1,8-naphthyridine-3-carboxylic acid and the process for the preparation thereof” (LG Chemical Ltd., priority 1994, dated 1998).

SMILES strings stand for the structures. Values after ≈ are worked out from the molar mass of the structure shown. Where two headings read alike, the source gives them in different places.

As to `CO/N=C1\CN(c2nc3c(cc2F)c(=O)c(C(=O)O)cn3C2CC2)CC1CN` (stereo not drawn) [Z-isomer], the MIC was ≤ 0.008 µg/mL in experiment [1]; 0.016 µg/mL (≈ 0.0411 µM) in the experiment on Escherichia coli 851E; 0.031 µg/mL (≈ 0.0796 µM) in experiment [2]; 0.031 µg/mL (≈ 0.0796 µM) in the experiment with Staphylococcus aureus 77; 0.063 µg/mL (≈ 0.162 µM) in experiment [3]; 0.13 µg/mL (≈ 0.334 µM) in [4]. For the same molecule, the MIC was 0.13 µg/mL (≈ 0.334 µM) in experiment [5] (setting [19]); 0.25 µg/mL (≈ 0.642 µM) with Seratis marsecence 1826E; 8 µg/mL (≈ 20.5 µM) in [6]; ≤ 0.008 µg/mL in [7]; ≤ 0.008 µg/mL in the experiment with Escherichia coli 3190Y; 0.25 µg/mL (≈ 0.642 µM) in the experiment with Proteus vulgaris 6059. Besides, the MIC in experiment [8] is 0.5 µg/mL (≈ 1.28 µM); in [9] it was 0.031 µg/mL (≈ 0.0796 µM); in the experiment with Enterobacter cloacae P99 it was ≤ 0.008 µg/mL; in experiment [10], 0.063 µg/mL (≈ 0.162 µM); with Bacillus subtilis 6633, ≤ 0.008 µg/mL; in [11], 0.031 µg/mL (≈ 0.0796 µM). Further, the MIC is 0.031 µg/mL (≈ 0.0796 µM) in experiment [12]; ≤ 0.008 µg/mL with Escherichia coli 10536; 0.13 µg/mL (≈ 0.334 µM) with Micrococcus luteus 9341; 4 µg/mL (≈ 10.3 µM) in experiment [13]; 0.031 µg/mL (≈ 0.0796 µM) in [14]; 0.063 µg/mL (≈ 0.162 µM) in [15]. Besides, the MIC in experiment [16] was 4 µg/mL (≈ 10.3 µM); in experiment [17], ≤ 0.008 µg/mL; in [18] (setting [20]), 0.5 µg/mL (≈ 1.28 µM). The antibacterial activity result in the experiment on test strains is “superior antibacterial activity to the E-isomer”.
Turning to `O=C(O)c1cn(C2CC2)c2cc(N3CCNCC3)c(F)cc2c1=O` [Ciprofloxacin, ciprofloxacin, reference compound], the MIC in experiment [5] (read-out: Minimum Inhibitory Concentration: MIC, Escherichia coli TEM3 3455E, Table 32, ratio of weight) is 0.5 µg/mL; in the experiment on Seratis marsecence 1826E, 0.063 µg/mL (≈ 0.19 µM); in [6] it was 4 µg/mL (≈ 12.1 µM); in experiment [7], 0.063 µg/mL (≈ 0.19 µM); in [15], 1 µg/mL (≈ 3.02 µM); in [18] (Pseudomonas aeruginosa 10145, Table 32, ratio of weight) it was 0.5 µg/mL. The “Minimum Inhibitory Concentration: MIC” value with Seratis marsecence 1826E (Table 32, ratio of weight) turned out to be 0.063 µg/mL.
As for `CO/N=C1/CN(c2nc3c(cc2F)c(=O)c(C(=O)O)cn3C2CC2)CC1CN` (stereo not drawn) [E-isomer], the MIC in experiment [1] was 0.063 µg/mL (≈ 0.162 µM); with Escherichia coli 851E, 0.063 µg/mL (≈ 0.162 µM); in experiment [2], 0.13 µg/mL (≈ 0.334 µM); in the experiment on Staphylococcus aureus 77 it was 0.063 µg/mL (≈ 0.162 µM); in [3] it was 0.25 µg/mL (≈ 0.642 µM); in [4], 0.5 µg/mL (≈ 1.28 µM). The MIC worked out at 0.5 µg/mL (≈ 1.28 µM) in experiment [5] (setting [19]); 0.5 µg/mL (≈ 1.28 µM) in the experiment with Seratis marsecence 1826E; 32 µg/mL (≈ 82.2 µM) in experiment [6]; 0.031 µg/mL (≈ 0.0796 µM) in experiment [7]; 0.016 µg/mL (≈ 0.0411 µM) in the experiment with Escherichia coli 3190Y; 1 µg/mL (≈ 2.57 µM) in the experiment on Proteus vulgaris 6059. The MIC in [8] is 1 µg/mL (≈ 2.57 µM); in experiment [9] it was 0.13 µg/mL (≈ 0.334 µM); in the experiment on Enterobacter cloacae P99, 0.031 µg/mL (≈ 0.0796 µM); in experiment [10] it was 0.25 µg/mL (≈ 0.642 µM); with Bacillus subtilis 6633 it was 0.031 µg/mL (≈ 0.0796 µM); in experiment [11], 0.13 µg/mL (≈ 0.334 µM). Further, the MIC in [12] is 0.13 µg/mL (≈ 0.334 µM); with Escherichia coli 10536, 0.031 µg/mL (≈ 0.0796 µM); in the experiment with Micrococcus luteus 9341, 0.5 µg/mL (≈ 1.28 µM); in [13] it was 32 µg/mL (≈ 82.2 µM); in [14] it was 0.13 µg/mL (≈ 0.334 µM); in experiment [15] it was 0.25 µg/mL (≈ 0.642 µM). Besides, the MIC in [16] was 16 µg/mL (≈ 41.1 µM); in [17], 0.063 µg/mL (≈ 0.162 µM); in experiment [18] (setting [20]) it was 2 µg/mL (≈ 5.14 µM).
